Measurements taken from patent US20230346831A1, “METHODS FOR TREATING […] USING LOW DOSE CARBON MONOXIDE” (priority 2020, published 2023).
Entries after “also recorded” stand apart in the source; their conditions may differ.

Columns and labels:
Format in all cases: cell-based, human
[1] = test system: cancer cells across different cancer types; experiment: in vitro transwell migration assay, statements across cancer types; conditions: 16 hours
Protocol: Migration of different cancer cells under control air or 250 ppm CO treatment with or without supplement of 30 µM hemin was determined using in vitro transwell migration chamber with a serum gradient. Indicated cell lines were seeded into the transwell inserts. 16 hours later, cells on the top of the upper chambers were removed, and cells on the bottom surface of the transwell inserts were fixed, stained with crystal violet, and counted from eight randomly picked fields in three independent experiments. Error bars represent SEM. *: P < 0.05, two-sided t-test. Scale bar, 100 µm. […]
6.5 mm Transwell with 8.0 µm Pore Polycarbonate Membrane Insert (Corning, NY, Cat. No. 3422) was used for the cell migration assay (FIG. 1J). After 16 hours of incubation, cells migrated to the opposite side of the upper chambers were fixed with 4% paraformaldehyde, stained with 0.2% crystal violet for 30 min and counted in five fields under × 20 magnification. […] The optical density was measured at 595 nm (OD595). […]
To investigate whether 250 ppm CO induces hypoxia, HiF1α protein levels in low-dose CO-treated MCF7/TGL and MDA-MB-231/TGL cells were examined. […] To assess the intracellular heme levels affected by low-dose CO treatment, oxidized heme levels in the form of hemin (Fe^3+ state) were measured because free heme (Fe^2+ state) is readily oxidized and cannot be measured. […]

[2] = test system: intracellular heme/hemin levels; experiment: heme colorimetric assay of intracellular heme
Protocol: Cells were grown to 75-80% confluence in 10-cm cell culture plates and collected in 1 ml cold PBS by cell scraper. 10 µl of the cells was transferred to a new tube for protein lysate preparation and protein concentration measurement. The rest of the cells were lysed in Heme extraction buffer (acetone: HCl: water = 25: 1.3: 5) as described by J. Hooda, M. Alam, & L. Zhang, J Vis Exp, e51579 (2015). Heme levels were measured using a heme colorimetric assay kit (BioVision, Milpitas, CA, Cat. No. K672-100) and normalized by the protein concentration of each sample.
To investigate whether 250 ppm CO induces hypoxia, HiF1α protein levels in low-dose CO-treated MCF7/TGL and MDA-MB-231/TGL cells were examined. Compared to the control cells grown in a standard tissue culture incubator, HiF1α protein levels were not changed after 250 ppm CO treatment for 16 hours (FIG. 4A). To identify genes and pathways that were affected by 250 ppm CO, RNA-Seq and gene set enrichment analysis (GESA) of MCF7 and MDA-MB-231 cells were performed after 16 hours in a CO incubator or in a regular cell culture incubator. […] To assess the intracellular heme levels affected by low-dose CO treatment, oxidized heme levels in the form of hemin (Fe^3+ state) were measured because free heme (Fe^2+ state) is readily oxidized and cannot be measured. […]

[3] = test system: MDA-MB-231 cells; experiment: proliferation assay (crystal violet, OD595); conditions: 16 hours
Protocol: Proliferation of different cancer cells under control air or 250 ppm CO treatment with or without supplement of 30 µM hemin was determined. Indicated cell lines cell lines were seeded in the 24-well plate in normal growth media. 16 hours later, cells were fixed, stained with crystal violet, and lysed by methanol. OD595 were measured from triplicates of each cell type. Error bars represent SEM. *: P < 0.05, two-sided t-test. Scale bar, 100 µm.
6.5 mm Transwell with 8.0 µm Pore Polycarbonate Membrane Insert (Corning, NY, Cat. No. 3422) was used for the cell migration assay (FIG. 1J). After 16 hours of incubation, cells migrated to the opposite side of the upper chambers were fixed with 4% paraformaldehyde, stained with 0.2% crystal violet for 30 min and counted in five fields under × 20 magnification. In parallel, cells were seeded on 24-well plates for proliferation assay. Cells for proliferation control were fixed with 4% paraformaldehyde, stained with 0.2% crystal violet for 30 min and lysed with methanol to release the crystal violet as described by M. Feoktistova, P. Geserick, & M. Leverkus, Cold Spring Harb Protoc 2016, pdb prot087379 (2016). The optical density was measured at 595 nm (OD595). To supplement heme/hemin in the transwell migration assay, 30 µM hemin (MedChemExpress, Monmouth Junction, NJ, Cat. No. HY-19424) was added to both the cell suspension in the upper chambers and the bottom wells.
To examine whether CO has an effect on tumor cell migration, in vitro transwell migration assays were performed. […] Cell migration through the transwell membrane along a serum gradient (Table 1) after 16 hours in the presence or absence of 250 ppm CO were measured.
5 × 10^4 MDA-MB-231-TGL cells were seeded in the upper chamber of 8-µm porous polycarbonate membranes with DMEM containing 0% FBS, 0.2 mM L-glutamine and 1% penicillin/streptomycin. […] The optical density was measured at 595 nm (OD595).

Molecule	cell migration inhibited by CO (rescue by hemin supplement) ([1]; 30 µM hemin + 250 ppm CO, transwell, cell lines not named at the place (FIGS. 1A-1I; 1C-1E))	intracellular heme levels with hemin supplement ([2]; 30 µM hemin in the medium, CO-treated cells)	cancer cell proliferation with hemin supplement ([3]; MDA-MB-231/TGL cells, 30 µM hemin, with or without 250 ppm CO)	cancer cell migration across different cancer types ([1]; 250 ppm CO, transwell with serum gradient, vs control air)	intracellular heme/hemin levels ([2]; MCF7 and MDA-MB-231 cells, 250 ppm CO)	inhibitory effect on MDA-MB-231 cell proliferation by seeding density ([3]; CO, higher density (6.25 × 10^4 or 12.5 × 10^4 cells per 24-well) compared with lower density (3.125 × 10^4 cells per 24-well))	cell proliferation ([3]; MDA-MB-231 cells, 250 ppm CO, vs control air)
Hemin [reference compound]	partially restored; also recorded: rescued	increased	did not alter	–	–	–	–
[C-]#[O+] [CO, Carbon monoxide]	–	–	–	decreases	significantly reduced	greater inhibitory effect	did not affect
